# Assay results reported in the supplement of paper PMC8149375.
# Experiments:
# Details in all cases: treatment: drug + dasatinib (fixed dose, not stated); 5 days
# 769-P [1] = test: GI50 of drug in presence of dasatinib; higher = less potent
# Protocol: (§1)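 Primary HTS combination arm: 8 RCC cell lines treated with 8 doses (up to 10 uM) of each library drug plus a fixed dose of dasatinib (dose not stated) for 5 days; viability read by CellTiter-Glo and normalised to DMSO. GI50 was fitted with XLfit, AUC is the area under the dose-response curve, and minimum viability is the lowest fraction of DMSO viability across doses.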
# 786-O [2] = test: as above
# Protocol: as §1
# A498 [3] = test: as above
# Protocol: as §1
# ACHN [4] = test: as above
# Protocol: as §1
# CAKI-1 [5] = test: as above
# Protocol: as §1
# SN12C [6] = test: as above
# Protocol: as §1
# TK-10 [7] = test: as above
# Protocol: as §1
# UO-31 [8] = test: as above
# Protocol: as §1
# 769-P [9] = test: minimum viability across doses, drug + dasatinib, relative to DMSO (fraction); higher = less growth inhibition
# Protocol: as §1
# 786-O [10] = test: as above
# Protocol: as §1
# A498 [11] = test: as above
# Protocol: as §1
# ACHN [12] = test: as above
# Protocol: as §1
# CAKI-1 [13] = test: as above
# Protocol: as §1
# SN12C [14] = test: as above
# Protocol: as §1
# TK-10 [15] = test: as above
# Protocol: as §1
# UO-31 [16] = test: as above
# Protocol: as §1
# 769-P [17] = test: AUC of dose-response viability curve, drug + dasatinib, normalised to DMSO (arbitrary (AUC of normalised viability)); higher = less growth inhibition
# Protocol: as §1
# 786-O [18] = test: as above
# Protocol: as §1
# A498 [19] = test: as above
# Protocol: as §1
# ACHN [20] = test: as above
# Protocol: as §1
# CAKI-1 [21] = test: as above
# Protocol: as §1
# SN12C [22] = test: as above
# Protocol: as §1
# TK-10 [23] = test: as above
# Protocol: as §1
# UO-31 [24] = test: as above
# Protocol: as §1
GI50 of drug (786-O [2]) [µM],GI50 of drug (ACHN [4]) [µM],Structure (SMILES),GI50 of drug (769-P [1]) [µM],GI50 of drug (A498 [3]) [µM],GI50 of drug (CAKI-1 [5]) [µM],GI50 of drug (SN12C [6]) [µM],GI50 of drug (TK-10 [7]) [µM],GI50 of drug (UO-31 [8]) [µM],minimum viability across doses (769-P [9]),minimum viability across doses (786-O [10]),minimum viability across doses (A498 [11]),minimum viability across doses (ACHN [12]),minimum viability across doses (CAKI-1 [13]),minimum viability across doses (SN12C [14]),minimum viability across doses (TK-10 [15]),minimum viability across doses (UO-31 [16]),AUC of dose-response viability curve (769-P [17]),AUC of dose-response viability curve (786-O [18]),AUC of dose-response viability curve (A498 [19]),AUC of dose-response viability curve (ACHN [20]),AUC of dose-response viability curve (CAKI-1 [21]),AUC of dose-response viability curve (SN12C [22]),AUC of dose-response viability curve (TK-10 [23]),AUC of dose-response viability curve (UO-31 [24])
0.713,0.0245,CC(C)n1nc(-c2cc3cc(O)ccc3[nH]2)c2c(N)ncnc21 [PP242] + Cc1nc(Nc2ncc(C(=O)Nc3c(C)cccc3Cl)s2)cc(N2CCN(CCO)CC2)n1 [dasatinib],0.401,1.35,0.158,0.357,0.253,1.14,0.0492,0.00231,0.152,0.0314,0.0342,0.0689,0.0716,0.00386,1.86,1.74,2.41,1.19,1.51,1.74,1.86,2.82
0.0738,0.132,Nc1ncnc2c1c(-c1cnc3[nH]ccc3c1)nn2C1CCCC1 [PP-121] + Cc1nc(Nc2ncc(C(=O)Nc3c(C)cccc3Cl)s2)cc(N2CCN(CCO)CC2)n1 [dasatinib],0.415,1.27,0.126,0.337,0.261,0.896,0.0299,0.00453,0.0684,0.0126,0.00718,0.0517,0.0102,0.00907,1.74,1.44,2.5,1.41,1.41,1.73,1.67,2.71
2.96,> 10,COc1ccc(COc2cc3oc(=O)c4cc(C(C)O)ccc4c3cc2OC)cc1 (stereo unspecified) [Palomid 529] + Cc1nc(Nc2ncc(C(=O)Nc3c(C)cccc3Cl)s2)cc(N2CCN(CCO)CC2)n1 [dasatinib],6.22,> 10,5.94,> 10,> 10,> 10,0.415,0.324,0.857,0.539,0.414,0.707,0.635,1.17,2.29,2.05,3.49,2.1,2.25,2.53,2.53,4.61
< 0.003,1.34,Cc1ccc(Nc2nccc(N(C)c3ccc4c(C)n(C)nc4c3)n2)cc1S(N)(=O)=O.Cl [Pazopanib HCl] + Cc1nc(Nc2ncc(C(=O)Nc3c(C)cccc3Cl)s2)cc(N2CCN(CCO)CC2)n1 [dasatinib],8.32,> 10,0.925,3.1,8.59,8.02,0.123,0.277,0.522,0.175,0.0765,0.327,0.469,0.248,2.22,2.29,3.16,2.13,1.86,2.37,2.54,3.27
0.404,0.00721,CCOc1cc2ncc(C#N)c(Nc3ccc(F)c(Cl)c3)c2cc1NC(=O)/C=C/CN(C)C [Pelitinib (EKB-569)] + Cc1nc(Nc2ncc(C(=O)Nc3c(C)cccc3Cl)s2)cc(N2CCN(CCO)CC2)n1 [dasatinib],0.0484,1.08,0.0606,0.864,0.0611,0.216,0.0321,0.00483,0.0177,0.00232,0.0303,0.00631,0.00649,0.0179,1.38,1.79,2.55,0.845,1.17,1.78,1.43,1.8
1.06,3.14,Cl.N=C(N)NC(=N)NCCc1ccccc1 [Phenformin hydrochloride] + Cc1nc(Nc2ncc(C(=O)Nc3c(C)cccc3Cl)s2)cc(N2CCN(CCO)CC2)n1 [dasatinib],> 10,> 10,> 10,4.33,5.02,4.39,0.623,0.115,0.676,0.357,0.578,0.114,0.315,0.194,2.41,1.84,3.25,2.08,2.28,2.36,2.35,2.83
> 10,3.78,Br.Cc1ccc(C(=O)Cn2c3c(sc2=N)CCCC3)cc1 [Pifithrin-α] + Cc1nc(Nc2ncc(C(=O)Nc3c(C)cccc3Cl)s2)cc(N2CCN(CCO)CC2)n1 [dasatinib],> 10,> 10,> 10,> 10,> 10,> 10,0.696,0.535,0.901,0.391,0.529,0.656,0.59,0.998,2.63,2.26,3.57,2.03,2.13,2.53,2.3,4.02
> 10,> 10,Nc1cccc2c1C(=O)N(C1CCC(=O)NC1=O)C2=O (stereo unspecified) [Pomalidomide] + Cc1nc(Nc2ncc(C(=O)Nc3c(C)cccc3Cl)s2)cc(N2CCN(CCO)CC2)n1 [dasatinib],> 10,> 10,> 10,> 10,> 10,> 10,0.65,0.617,0.857,0.542,0.642,0.711,0.639,0.868,2.65,2.67,3.27,2.15,2.38,2.58,2.5,3.3
> 10,> 10,O=c1c(O)c(-c2ccc(O)c(O)c2)oc2cc(O)cc(O)c12 [Quercetin (Sophoretin)] + Cc1nc(Nc2ncc(C(=O)Nc3c(C)cccc3Cl)s2)cc(N2CCN(CCO)CC2)n1 [dasatinib],> 10,> 10,> 10,> 10,> 10,> 10,0.618,0.45,0.879,0.56,0.576,0.692,0.67,0.844,2.42,1.89,3.26,2.14,2.35,2.52,2.47,3.51
1.56,2.02,CC(C)(C)c1cc(NC(=O)Nc2ccc(-c3cn4c(n3)sc3cc(OCCN5CCOCC5)ccc34)cc2)no1 [Quizartinib (AC220)] + Cc1nc(Nc2ncc(C(=O)Nc3c(C)cccc3Cl)s2)cc(N2CCN(CCO)CC2)n1 [dasatinib],2.37,6.27,1.08,> 10,> 10,> 10,0.432,0.256,0.115,0.315,0.378,0.627,0.622,0.859,2.19,2.25,2.87,1.89,2.02,2.29,2.54,3.94
0.571,0.032,COc1cc(Nc2ncc(F)c(Nc3ccc4c(n3)NC(=O)C(C)(C)O4)n2)cc(OC)c1OC [R406(free base)] + Cc1nc(Nc2ncc(C(=O)Nc3c(C)cccc3Cl)s2)cc(N2CCN(CCO)CC2)n1 [dasatinib],1.53,> 10,0.231,1.39,1.38,1.61,0.13,0.168,0.591,0.0361,0.0291,0.189,0.348,0.0124,2.08,1.77,3.18,1.11,1.54,2.05,2.19,3.16
0.724,0.173,COc1cc(Nc2ncc(F)c(Nc3ccc4c(n3)NC(=O)C(C)(C)O4)n2)cc(OC)c1OC.O=S(=O)(O)c1ccccc1 [R406] + Cc1nc(Nc2ncc(C(=O)Nc3c(C)cccc3Cl)s2)cc(N2CCN(CCO)CC2)n1 [dasatinib],2.2,> 10,0.24,0.908,1.58,1.57,0.139,0.232,0.675,0.0817,0.0338,0.235,0.347,0.0103,2.23,1.91,3.28,1.71,1.53,2.04,2.22,2.12
0.366,0.183,COc1cc(Nc2ncc(F)c(Nc3ccc4c(n3)N(COP(=O)(O)O)C(=O)C(C)(C)O4)n2)cc(OC)c1OC [R788 (Fostamatinib)] + Cc1nc(Nc2ncc(C(=O)Nc3c(C)cccc3Cl)s2)cc(N2CCN(CCO)CC2)n1 [dasatinib],0.993,> 10,0.195,0.983,0.963,2.4,0.0614,0.199,0.61,0.04,0.00427,0.179,0.254,0.0153,2,1.88,3.69,1.45,1.47,2.02,2.16,3.58
5.02,3.3,FC(F)(F)c1ccc(Nc2nc3cc(Oc4ccnc(-c5ncc(C(F)(F)F)[nH]5)c4)ccc3[nH]2)cc1 [Raf265 derivative] + Cc1nc(Nc2ncc(C(=O)Nc3c(C)cccc3Cl)s2)cc(N2CCN(CCO)CC2)n1 [dasatinib],5.01,> 10,3.55,> 10,9.07,> 10,0.318,0.241,0.633,0.137,0.173,0.484,0.476,0.551,2.37,2.47,3.35,2.21,2.35,2.47,2.73,3.44
